Experimental data: patent publication US20260098030A1, “NEGATIVE ALLOSTERIC MODULATORS OF METABOTROPIC GLUTAMATE RECEPTOR 2” (Vanderbilt University, priority 2022, published 2026)

Biological target: T1, human mGlu2 (Homo sapiens, UniProt Q14416)
T1 construct: expressed in transfected cells; host or cells: HEK-293 cells stably co-expressing GIRK channels
Experiment: mGlu GIRK cell-based thallium flux assay, human mGlu2
Details: HEK-293 cells co-expressing human mGlu2 and GIRK, EC80 glutamate
Procedure: Human embryonic kidney (HEK-293) cell lines stably co-expressing human or rat mGlu2 and G protein-coupled inwardly rectifying potassium (GIRK) channels, or human mGlu3 and GIRK, were used for in vitro evaluation of compound activity in thallium flux assay using a fluorescent thallium indicator dye.
The day before the assay, GIRK cells co-expressing human mGlu3, human or rat mGlu2, as described above, were plated in black-walled, clear-bottomed, amine-coated 384-well plates at a density of 15,000 cells/20 μL/well in the assay medium (glutamine-depleted basal DMEM supplemented with 10% dialyzed FBS, 20 mM HEPES, 1 mM sodium pyruvate). Cells were incubated at 37° C. in the presence of 5% CO2. The next day, assay buffer (Hanks balanced salt solution, 20 mM HEPES, 4.16 mM sodium bicarbonate, pH 7.2) was prepared to dilute compounds and Thallos AM fluorescent dye solution. The 2× Thallos dye solution (final concentration 0.34 μM to the cells) was prepared by mixing the dye stock (2.97 mM in DMSO) to 1:1 with 10% pluronic acid before adding to the assay buffer. Cells were washed with assay buffer using a microplate washer to remove the medium, resulting in 20 μL of buffer remaining in each well. Immediately, 20 μL of 2× Thallos dye solution was added to cells, and incubated for one hour at 25° C. During the cell dye loading incubation period, a 10-point concentration serial dilution of compound was created from a 10 mM DMSO compound stock by performing a 1:3 serial dilution in DMSO using the Bravo liquid handler. The 2× compound plate was generated by transferring 0.24 μL of the diluted compound in each well to a daughter plate using an Echo acoustic liquid handler. This is further diluted in 40 μL assay buffer, resulting in a range from 30 μM to 1.5 nM final concentration in the assay. The agonist plate (5×) was prepared to include EC80 glutamate concentration (a concentration to elicit 80% of a maximally effective glutamate concentration) in thallium buffer (125 mM […], 1 mM magnesium sulfate, 1.8 mM calcium sulfate, 5 mM glucose, 10 mM HEPES, pH 7.2, 12.5 mM thallium sulfate).
After dye-loading, cell plates were washed with assay buffer to remove excess extracellular dye using a microplate washer, resulting in 20 μL of buffer remaining in each well. After a ten-minute equilibration period, cell, compound and agonist plates were loaded into a Hamamatsu μCell kinetic imaging plate reader equipped with liquid handler to monitor fluorescence changes at 480 nm excitation and 540 nm emission settings. Briefly, after collection of baseline fluorescence, 20 μL of compound was added and incubated for two minutes and twenty seconds. This is immediately followed by adding 10 μL of glutamate-thallium buffer to the wells containing compound. The fluorescent signal was monitored an additional 2.5 minutes after the glutamate addition. Multiple reference wells containing no compound received either no glutamate (for a baseline reference), EC80 glutamate, or ECmax glutamate (for normalization to maximum response). Fluorescence was measured throughout the experiment at a frequency of 1 measurement per every 2 seconds before the glutamate addition and a frequency of 1 measurement per every 1 second after the glutamate addition. Each compound concentration series occurred one time in each plate, and replicates from two or three plates were used in each experimental run. Thallium solutions were handled and disposed of according to guidelines from the Vanderbilt University Chemical Safety department.
Data were normalized using a static ratio function (F/F0) by dividing every fluorescent measurement by the initial fluorescent value for the corresponding well. The increase in signal resulting from the glutamate/thallium addition of the second add was measured by determining the slope from 3 seconds to 13 seconds after the addition. […]

T1 sequence (Q14416 19-872): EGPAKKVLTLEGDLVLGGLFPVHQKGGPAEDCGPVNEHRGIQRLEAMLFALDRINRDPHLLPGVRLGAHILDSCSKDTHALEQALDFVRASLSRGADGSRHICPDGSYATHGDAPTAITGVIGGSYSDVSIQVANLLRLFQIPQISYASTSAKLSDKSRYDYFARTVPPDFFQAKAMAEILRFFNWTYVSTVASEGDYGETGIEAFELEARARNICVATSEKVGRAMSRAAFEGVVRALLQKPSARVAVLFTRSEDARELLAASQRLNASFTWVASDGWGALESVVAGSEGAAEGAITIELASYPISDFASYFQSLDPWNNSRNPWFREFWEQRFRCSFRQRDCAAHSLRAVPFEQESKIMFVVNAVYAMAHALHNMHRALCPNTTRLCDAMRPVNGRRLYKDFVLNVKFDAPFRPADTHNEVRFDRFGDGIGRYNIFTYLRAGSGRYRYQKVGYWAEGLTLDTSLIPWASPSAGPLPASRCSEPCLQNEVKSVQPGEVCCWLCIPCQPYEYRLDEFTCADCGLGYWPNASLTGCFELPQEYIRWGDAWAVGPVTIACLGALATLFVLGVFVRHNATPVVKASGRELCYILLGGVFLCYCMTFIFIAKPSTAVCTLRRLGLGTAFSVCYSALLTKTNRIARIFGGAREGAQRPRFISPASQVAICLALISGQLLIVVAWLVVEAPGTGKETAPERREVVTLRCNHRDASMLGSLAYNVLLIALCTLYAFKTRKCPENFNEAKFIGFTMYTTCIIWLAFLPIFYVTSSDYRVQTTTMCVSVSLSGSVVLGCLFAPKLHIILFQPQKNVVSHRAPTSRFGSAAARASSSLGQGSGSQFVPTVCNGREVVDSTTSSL

IC50 | SMILES
2.45 µM | COc1cc(C#N)ccc1-c1cc2c(cc1-c1cccc(C#N)c1)CNC2=O [Compound 166, 4-(6-(3-cyanophenyl)-3-oxoisoindolin-5-yl)-3-methoxybenzonitrile]
> 10 µM | N#Cc1cccc(-c2cc3c(cc2-c2ccc(C#N)c(F)c2)C(=O)NC3)c1 [Compound 167, 4-(6-(3-cyanophenyl)-3-oxoisoindolin-5-yl)-2-fluorobenzonitrile]
> 10 µM | N#Cc1cccc(-c2cc3c(cc2-c2ccc(O)cc2F)C(=O)NC3)c1 [Compound 168, 3-(6-(2-fluoro-4-hydroxyphenyl)-1-oxoisoindolin-5-yl)benzonitrile]
2.25 µM | N#Cc1cccc(-c2cc3c(cc2-c2ccc(F)cc2Cl)C(=O)NC3)c1 [Compound 169, 3-(6-(2-chloro-4-fluorophenyl)-1-oxoisoindolin-5-yl)benzonitrile]
> 10 µM | COc1ccc(F)c(-c2cc3c(cc2-c2cccc(C#N)c2)CNC3=O)c1 [Compound 170, 3-(6-(2-fluoro-5-methoxyphenyl)-1-oxoisoindolin-5-yl)benzonitrile]
3.55 µM | COc1ccc(-c2cc3c(cc2-c2cccc(C#N)c2)CNC3=O)cc1F [Compound 171, 3-(6-(3-fluoro-4-methoxyphenyl)-1-oxoisoindolin-5-yl)benzonitrile]
> 10 µM | COc1ccc(-c2cc3c(cc2-c2cccc(C#N)c2)CNC3=O)cc1C#N [Compound 172, 5-(6-(3-cyanophenyl)-3-oxoisoindolin-5-yl)-2-methoxybenzonitrile]
7.34 µM | COc1ccc(-c2cc3c(cc2-c2cccc(C#N)c2)CNC3=O)c(Cl)c1 [Compound 173, 3-(6-(2-chloro-4-methoxyphenyl)-1-oxoisoindolin-5-yl)benzonitrile]
> 10 µM | COc1cc(F)c(-c2cc3c(cc2-c2cccc(C#N)c2)CNC3=O)cc1F [Compound 174, 3-(6-(2,5-difluoro-4-methoxyphenyl)-1-oxoisoindolin-5-yl)benzonitrile]
> 10 µM | COc1ccc(-c2cc3c(cc2-c2cccc(C#N)c2)CNC3=O)c(C)c1 [Compound 175, 3-(6-(4-methoxy-2-methylphenyl)-1-oxoisoindolin-5-yl)benzonitrile]
> 10 µM | N#Cc1cccc(-c2cc3c(cc2-c2cc(C#N)ccc2F)C(=O)NC3)c1 [Compound 176, 3-(6-(3-cyanophenyl)-3-oxoisoindolin-5-yl)-4-fluorobenzonitrile]
1.35 µM | Cc1cc(-c2cc3c(cc2-c2cccc(C#N)c2)CNC3=O)c(F)cc1F [Compound 177, 3-(6-(2,4-difluoro-5-methylphenyl)-1-oxoisoindolin-5-yl)benzonitrile]
> 10 µM | N#Cc1cccc(-c2cc3c(cc2-c2ccc(F)c(C#N)c2)C(=O)NC3)c1 [Compound 178, 5-(6-(3-cyanophenyl)-3-oxoisoindolin-5-yl)-2-fluorobenzonitrile]
> 10 µM | N#Cc1cccc(-c2cc3c(cc2-c2ccc(C#N)c(C(F)(F)F)c2)C(=O)NC3)c1 [Compound 179, 4-(6-(3-cyanophenyl)-3-oxoisoindolin-5-yl)-2-(trifluoromethyl)benzonitrile]
> 10 µM | N#Cc1cccc(-c2cc3c(cc2-c2cc(C(F)(F)F)ccc2F)C(=O)NC3)c1 [Compound 180, 3-(6-(2-fluoro-5-(trifluoromethyl)phenyl)-1-oxoisoindolin-5-yl)benzonitrile]
> 10 µM | Cc1cc(-c2cc3c(cc2-c2cccc(C#N)c2)CNC3=O)c(F)cc1C#N [Compound 181, 4-(6-(3-cyanophenyl)-3-oxoisoindolin-5-yl)-5-fluoro-2-methylbenzonitrile]
> 10 µM | COc1c(F)cc(-c2cc3c(cc2-c2cccc(C#N)c2)CNC3=O)cc1F [Compound 182, 3-(6-(3,5-difluoro-4-methoxyphenyl)-1-oxoisoindolin-5-yl)benzonitrile]

IC50 | SMILES
> 10 µM | N#Cc1cccc(-c2cc3c(cc2-c2cccc(C#N)c2F)C(=O)NC3)c1 [Compound 183, 3-(6-(3-cyanophenyl)-3-oxoisoindolin-5-yl)-2-fluorobenzonitrile]
1.13 µM | COc1ccc(-c2cc3c(cc2-c2cccc(C#N)c2)CNC3=O)c(F)c1F [Compound 184, 3-(6-(2,3-difluoro-4-methoxyphenyl)-1-oxoisoindolin-5-yl)benzonitrile]
> 10 µM | N#Cc1cccc(-c2cc3c(cc2-c2cc(F)ccc2F)C(=O)NC3)c1 [Compound 185, 3-(6-(2,5-difluorophenyl)-1-oxoisoindolin-5-yl)benzonitrile]
> 10 µM | COc1ccc(F)cc1-c1cc2c(cc1-c1cccc(C#N)c1)CNC2=O [Compound 186, 3-(6-(5-fluoro-2-methoxyphenyl)-1-oxoisoindolin-5-yl)benzonitrile]
9.58 µM | N#Cc1cccc(-c2cc3c(cc2-c2cc(F)ccc2C#N)C(=O)NC3)c1 [Compound 187, 2-(6-(3-cyanophenyl)-3-oxoisoindolin-5-yl)-4-fluorobenzonitrile]
> 10 µM | Cc1ccc(C#N)cc1-c1cc2c(cc1-c1cccc(C#N)c1)CNC2=O [Compound 188, 3-(6-(3-cyanophenyl)-3-oxoisoindolin-5-yl)-4-methylbenzonitrilc]
> 10 µM | N#Cc1cccc(-c2cc3c(cc2-c2cc(F)cc(C#N)c2)C(=O)NC3)c1 [Compound 189, 3-(6-(3-cyanophenyl)-3-oxoisoindolin-5-yl)-5-fluorobenzonitrile]
0.191 µM | Cn1ccc(CCc2cc3c(cc2-c2ccc(F)cc2F)C(=O)NC3)n1 [Compound A1, 6-(2,4-difluorophenyl)-5-(2-(1-methyl-1H-pyrazol-3-yl)ethyl)isoindolin-1-one]
0.667 µM | O=C1NCc2cc(CCc3cncnc3)c(-c3ccc(F)cc3F)cc21 [Compound A2, 6-(2,4-difluorophenyl)-5-(2-(pyrimidin-5-yl)ethyl)isoindolin-1-one]
0.218 µM | [2H]C([2H])(c1ccn(C)n1)C([2H])([2H])c1cc2c(cc1-c1ccc(F)cc1F)C(=O)NC2 [Compound A3, 6-(2,4-difluorophenyl)-5-(2-(1-methyl-1H-pyrazol-3-yl)ethyl-1,1,2,2-d4)isoindolin-1-one]
0.481 µM | N#Cc1cccc(CCc2cc3c(cc2-c2ccc(F)cc2F)C(=O)NC3)c1 [Compound A4, 3-(2-(6-(2,4-difluorophenyl)-1-oxoisoindolin-5-yl)ethyl)benzonitrile]
0.205 µM | [2H]C1([2H])NC(=O)c2cc(-c3ccc(F)cc3F)c(C([2H])([2H])C([2H])([2H])c3ccn(C)n3)cc21 [Compound A5, 6-(2,4-difluorophenyl)-5-(2-(1-methyl-1H-pyrazol-3-yl)ethyl-1,1,2,2-d4)isoindolin-1-one-3,3-d2]
0.287 µM | [2H]C([2H])(c1cc2c(cc1-c1ccc(F)cc1F)C(=O)NC2)C([2H])([2H])c1ccnn1C [Compound A6, 6-(2,4-difluorophenyl)-5-(2-(1-methyl-1H-pyrazol-5-yl)ethyl-1,1,2,2-d4)isoindolin-1-one]
0.208 µM | Cn1nccc1CCc1cc2c(cc1-c1ccc(F)cc1F)C(=O)NC2 [Compound A7, 6-(2,4-difluorophenyl)-5-(2-(1-methyl-1H-pyrazol-5-yl)ethyl)isoindolin-1-one]
0.413 µM | O=C1NCc2cc(CCc3ccn(C4CC4)n3)c(-c3ccc(F)cc3F)cc21 [Compound A8, 5-(2-(1-cyclopropyl-1H-pyrazol-3-yl)ethyl)-6-(2,4-difluorophenyl)isoindolin-1-one]
0.273 µM | Cn1nc(CCc2cc3c(cc2-c2ccc(F)cc2F)C(=O)NC3)cc1C#N [Compound A9, 3-(2-(6-(2,4-difluorophenyl)-1-oxoisoindolin-5-yl)ethyl)-1-methyl-1H-pyrazole-5-carbonitrile]
